Measurements published in publication PMC3200115, “Peptide Inhibition of Topoisomerase IB from Plasmodium falciparum” (Molecular Biology International, 2011).
Bridges are numbered along the chain shown (N, C = ends). Where no end group is shown, it is not given here.

Assays:
[1] = tested on: P. falciparum topoisomerase I (pfTopoI); experiment: Plasmid (pBR322) DNA relaxation by pfTopoI; assay type: biochemical, Plasmodium falciparum; settings: peptide 1.3 to 50 μM; even at concentrations up to 50 μM; 30 min, 37°C
[2] = tested on: DNA; experiment: Unspecific DNA binding; settings: confirmed in the present study, data not shown
[3] = tested on: type IB Topo of Vaccinia virus (vvTopoI); settings: cited from earlier work; for step of catalysis inhibited (vvTopoI): DNA relaxation by vvTopoI; for step of catalysis inhibited (vvTopoI) / inhibition of vvTopoI relaxation activity: ref [39], [40]; for activity against vvTopoI: from rescreening of peptide combinatorial library against vvTopoI, ref [40]
[4] = tested on: bacteriophage λ-Int; settings: ref [39], [40]; cited from earlier work

| Substance | effect on relaxation activity of pfTopoI [1] | DNA binding capacity [2] | step of catalysis inhibited (vvTopoI) [3] | activity against vvTopoI [3] | inhibition of vvTopoI relaxation activity [3] | step of catalysis inhibited (λ-Int) [4] |
| --- | --- | --- | --- | --- | --- | --- |
| KCCRCK (disulfide (positions not given here)) [synthetic hexapeptide purchased from GenScript] | no effect | unspecific DNA binding capacity | specific inhibition of the cleavage and not the ligation step of catalysis | high activity | inhibited the relaxation activity of vvTopoI | specific inhibition of the cleavage and not the ligation step of catalysis |
| WYCRCK (disulfide 3-5 (inferred)) [synthetic hexapeptide purchased from GenScript] | no effect | unspecific DNA binding capacity | specific inhibition of the cleavage and not the ligation step of catalysis | high activity | inhibited the relaxation activity of vvTopoI | specific inhibition of the cleavage and not the ligation step of catalysis |
